Literature values as cited in patent US9505976B2, “Excitation-dependent fluorescent organic nanoparticles” (National Kaohsiung Normal University, priority 2013, dated 2016).

Conditions: in ethanol

SMILES: CCN(CC)c1ccc2c(C)cc(=O)oc2c1 [coumarin 1, 7-diethylamino-4-methylcoumarin]
- quantum yield of reference: 73%
